Here are results for two compounds from ChEMBL document CHEMBL2407077, “Cycloforskamide, a cytotoxic macrocyclic peptide from the sea slug Pleurobranchus forskalii” (J Nat Prod, 2013).

The experiment concerns P388. Kind of experiment: Cytotoxicity against mouse P388 cells after 3 days by MTT assay. Format: functional, cell-based. The conditions noted are these: P388, 72 h.

One may read the IC50 as the point on the concentration scale where inhibition reaches its midpoint. A high value points to weaker potency in that assay.

Numbered stars: 1 amine (or outer) side, 2 acyl side, 3 side chain; on linkers, the order of the positions; unused ones are H or OH. Square brackets hold non-standard residues; d marks the D form. Peptide text beside a SMILES is read from it. X2 = CC[C@H](C)[C@@H](N[*:1])C1=N[C@H](C(=O)[*:2])CS1; X1 = O=C([C@@H]1CSC([C@H]2CCCN2[*:1])=N1)[*:2]

With `CC[C@H](C)[C@@H]1NC(=O)[C@@H]2CSC(=N2)[C@H]2CCCN2C(=O)[C@H]([C@@H](C)O)NC(=O)[C@H](C(C)C)NC(=O)[C@H](C(C)C)NC(=O)[C@H]([C@@H](C)O)NC(=O)[C@@H]2CSC(=N2)[C@@H]([C@@H](C)CC)NC(=O)[C@H](C(C)C)NC(=O)[C@@H]2CSC(=N2)[C@H]2CCCN2C1=O` [CYCLOFORSKAMIDE] (cyclo(I[X1]V[X2]TVVT[X1])), the IC50 was found to be 5.8 µM. In the case of `COc1cccc2c1C(=O)c1c(O)c3c(c(O)c1C2=O)C[C@@](O)(C(=O)CO)C[C@@H]3O[C@H]1C[C@H](N)[C@H](O)[C@H](C)O1` [DOXORUBICIN] it was 0.21 µM.
